Results from patent US11628199B2, “Medicine for combined use in cancer treatment” (SICHUAN JIUZHANG BIOLOGICAL SCIENCE AND TECHNOLOGY CO., LTD, priority 2017, dated 2023).
Where a SMILES comes first, the peptide text is derived from it. [ ]: non-standard residue; d: D form. The star is where a group is joined. dPhe(4-NHCONH2) = NC(=O)Nc1ccc(C[C@@H](N)C(=O)O)cc1; Dihydroorotyl(S) = O=C1C[C@@H](C(=O)*)NC(=O)N1; dPhe(4-Cl) = N[C@H](Cc1ccc(Cl)cc1)C(=O)O; Phe(4-NH2) = Nc1ccc(C[C@H](N)C(=O)O)cc1; d2Nal = N[C@H](Cc1ccc2ccccc2c1)C(=O)O; Lys(iPr) = CC(C)NCCCC[C@H](N)C(=O)O; NMeY = CN[C@@H](Cc1ccc(O)cc1)C(=O)O; d3Pal = N[C@H](Cc1cccnc1)C(=O)O

Experiments:
[1] = tested on: RM-1 mouse prostate cancer cell lines; test: In vivo mouse xenograft tumor of RM-1 prostate cancer, chlorogenic acid combined with abarelix or degarelix
Description: Test drug: chlorogenic acid, abarelix, degarelix.
Test cell lines: RM-1 mouse prostate cancer cell lines.
(§1) Cells in exponential phase of growth were taken out, digested with trypsin to […], and then cell suspension was prepared by addition of saline.
When the tumor volume in the negative group was about 0.5 cm^3, the experiment was stopped. The mice were sacrificed by cervical dislocation and weighed. The tumors were removed and weighed to calculate the tumor inhibitory rate.

[2] = tested on: drug-resistant RM-1 mouse prostate cancer cell lines (abarelix-induced); test: In vivo mouse xenograft tumor of drug-resistant RM-1 prostate cancer, chlorogenic acid combined with abarelix; conditions: for Tumor weight: x ± s; for inhibitory rate of mouse xenograft tumor of drug-resistant RM-1 prostate cancer (in words): groups and doses as in Table 3
Description: Test drug: chlorogenic acid, abarelix.
Test cell lines: RM-1 mouse prostate cancer cell lines. RM-1 cell lines were induced by increasing concentration gradient of aberlix and established by clone and screen. Prior to experiment, cell lines were cultured without drug.
Test animals: Kunming mice, ♂, weight 17-24 g.
Drug-resistant cell lines after removal of drug were adjusted to the concentration of 1×10^7/mL with culture medium, and inoculated under the right anterior armpit of mice at 0.1 ml/mouse.
After the mean diameter of tumor reached 100 mm^3, mice were divided into 4 groups, i.e. abarelix group, chlorogenic acid+abarelix group, chlorogenic acid group, and the negative control group, respectively.
Abarelix group: intraperitoneal injection, once every seven days, 15 mg/kg, two doses in total.
chlorogenic acid+abarelix group: chlorogenic acid was intraperitoneally injected, once every day, 10 mg/kg, continuous administration for 5 days; After withdrawal of chlorogenic acid, abarelix was intraperitoneally injected on the next day, once every 7 days, 15 mg/kg, two doses in total.
Chlorogenic acid group: intraperitoneal injection, once every day, 10 mg/kg, continuous administration for 5 days; after that, saline was intraperitoneally injected, once every day, continuing 10 days.
Negative control group: intraperitoneal injection of saline, once every day, continuing 15 days.
After completion of administration, the experiment was stopped, and mice were sacrificed by cervical dislocation and weighed. The tumors were removed and weighed to calculate the tumor inhibitory rate.

[3] = tested on: EMT-6 mouse breast cancer cell lines; test: In vivo mouse xenograft tumor of EMT-6 breast cancer, chlorogenic acid combined with fulvestrant
Description: Test drug: chlorogenic acid, fulvestrant.
Test cell lines: EMT-6 mouse breast cancer cell lines.
as §1
Fulvestrant group received drug once by intraperitoneal injection on the next day after inoculation; chlorogenic acid group received drug once every day by intraperitoneal injection from the next day after inoculation, and the drug was successively administrated 15 times; combined medicine group received intraperitoneal injection of fulvestrant once on the next day after inoculation, and intraperitoneal injection of chlorogenic acid once every day from the next day after inoculation; the negative control group received saline by intraperitoneal injection once every day from the next day after inoculation, and saline was continuously given 15 times. When the tumor volume in the negative group was about 0.5 cm^3, the experiment was stopped. The mice were sacrificed by cervical dislocation and weighed. The tumors were removed and weighed to calculate the tumor suppression rate.
(2) If both drugs are combined, Q=E(a+b)/(Ea+Eb−Ea×Eb), in which E(a+b) is the inhibition rate for the combination of two drugs, i.e. the tested combined effect; Ea and Eb is respectively the inhibition rates of two drugs when they are separately used; the denominator (Ea+Eb−Ea×Eb) is the expected combined effect.

[4] = degarelix 30 mg·kg^−1 s.c. once
[5] = abarelix 15 mg·kg^−1 i.p. once every seven days, two doses
[6] = fulvestrant 40 mg·kg^−1 i.p. once
[7] = chlorogenic acid 10 mg·kg^−1 i.p. once daily, 15 times
[8] = chlorogenic acid 20 mg·kg^−1 i.p. once daily, 15 times
[9] = chlorogenic acid 40 mg·kg^−1 i.p. once daily, 15 times

Q: Which results are given for `CC(=O)N[C@H](Cc1ccc2ccccc2c1)C(=O)N[C@H](Cc1ccc(Cl)cc1)C(=O)N[C@H](Cc1cccnc1)C(=O)N[C@@H](CO)C(=O)N[C@@H](Cc1ccc(NC(=O)[C@@H]2CC(=O)NC(=O)N2)cc1)C(=O)N[C@H](Cc1ccc(NC(N)=O)cc1)C(=O)N[C@@H](CC(C)C)C(=O)N[C@@H](CCCCNC(C)C)C(=O)N1CCC[C@H]1C(=O)N[C@H](C)C(N)=O` [Degarelix, degarelix] (Ac-[d2Nal][dPhe(4-Cl)][d3Pal]S[Phe(4-NH2)](Dihydroorotyl(S))[dPhe(4-NHCONH2)]L[Lys(iPr)]P[dA]-NH2)?
A: Tumor inhibitory rate [1, 4]: 50.61%; Tumor weight [1, 4]: 0.764 ± 0.218 g

Q: `CC(=O)N[C@H](Cc1ccc2ccccc2c1)C(=O)N[C@H](Cc1ccc(Cl)cc1)C(=O)N[C@H](Cc1cccnc1)C(=O)N[C@@H](CO)C(=O)N(C)[C@@H](Cc1ccc(O)cc1)C(=O)N[C@H](CC(N)=O)C(=O)N[C@@H](CC(C)C)C(=O)N[C@@H](CCCCNC(C)C)C(=O)N1CCC[C@H]1C(=O)N[C@H](C)C(N)=O` [Abarelix, abarelix] (Ac-[d2Nal][dPhe(4-Cl)][d3Pal]S[NMeY][dN]L[Lys(iPr)]P[dA]-NH2) was tested. Which Tumor inhibitory rate ([1]; abarelix 15 mg·kg^−1 i.p. once) did it give?
A: 42.73%

Q: What about the Tumor weight ([1]; abarelix 15 mg·kg^−1 i.p. once) of the same compound?
A: 0.886 ± 0.521 g

Q: What about the Tumor inhibitory rate [2, 5] of the same compound?
A: 4.84%

Q: And the Tumor weight [2, 5]?
A: 2.339 ± 0.614 g

Q: What about the “inhibitory rate of mouse xenograft tumor of drug-resistant RM-1 prostate cancer (in words)” value [2] of the same compound?
A: weaker, without obvious suppression effect

Q: For `C[C@]12CC[C@@H]3c4ccc(O)cc4C[C@@H](CCCCCCCCC[S+]([O-])CCCC(F)(F)C(F)(F)F)[C@H]3[C@@H]1CC[C@@H]2O` (stereo partly drawn) [Fulvestrant, fulvestrant], which Tumor inhibitory rate [3, 6] is on record?
A: 43.40%

Q: And the Tumor weight [3, 6]?
A: 0.746 ± 0.311 g

Q: How did the Tumor inhibitory rate [3, 7] turn out when `O=C(/C=C/c1ccc(O)c(O)c1)O[C@@H]1C[C@](O)(C(=O)O)C[C@@H](O)[C@H]1O` [chlorogenic acid, 3-o-caffeoylquinic acid] was run?
A: 31.94%

Q: What about the Tumor weight ([3]; chlorogenic acid 10 mg·kg^−1 i.p. once daily, 15 times, BALB/C-nu mice) of the same compound?
A: 0.897 ± 0.346 g

Q: And the Tumor inhibitory rate [3, 8]?
A: 36.95%

Q: And the Tumor weight ([3]; chlorogenic acid 20 mg·kg^−1 i.p. once daily, 15 times, BALB/C-nu mice)?
A: 0.831 ± 0.221 g

Q: What about the Tumor inhibitory rate [3, 9] of the same compound?
A: 42.03%

Q: And the Tumor weight ([3]; chlorogenic acid 40 mg·kg^−1 i.p. once daily, 15 times, BALB/C-nu mice)?
A: 0.764 ± 0.539 g

Q: What about the Tumor inhibitory rate [1, 7] of the same compound?
A: 24.05%

Q: What about the Tumor weight ([1]; chlorogenic acid 10 mg·kg^−1 i.p. once daily, 15 times, Kunming mice) of the same compound?
A: 1.175 ± 0.117 g

Q: What about the Tumor inhibitory rate [1, 8] of the same compound?
A: 27.86%

Q: And the Tumor weight ([1]; chlorogenic acid 20 mg·kg^−1 i.p. once daily, 15 times, Kunming mice)?
A: 1.116 ± 0.358 g

Q: What about the Tumor inhibitory rate [1, 9] of the same compound?
A: 28.57%

Q: And the Tumor weight ([1]; chlorogenic acid 40 mg·kg^−1 i.p. once daily, 15 times, Kunming mice)?
A: 1.105 ± 0.641 g

Q: And the Tumor inhibitory rate ([2]; chlorogenic acid 10 mg·kg^−1 i.p. once daily for 5 days)?
A: 8.41%

Q: What about the Tumor weight ([2]; chlorogenic acid 10 mg·kg^−1 i.p. once daily for 5 days, then saline 10 days) of the same compound?
A: 2.251 ± 0.581 g

Q: What about the “inhibitory rate of mouse xenograft tumor of drug-resistant RM-1 prostate cancer (in words)” value [2] of the same compound?
A: weaker, without obvious suppression effect
